Reference: patent US8940913B2, “Herbicides” (Syngenta Crop Protection, LLC, priority 2007, dated 2015)

How the values were obtained:
Assay type in all cases: in vivo
[1] = system: Alopecurus myosuroides (ALOMY); experiment: Pre-emergence herbicidal activity, glasshouse pot test; conditions: 480 h, rate 250 g/ha, evaluated 20 days later, 100=total damage to plant, 0=no damage to plant
Experimental: (§1) Monocotyledonous and dicotyledonous test plants were sown in standard soil in pots. After cultivation for one day (pre-emergence) or after 10 days cultivation (post-emergence) under controlled conditions in a glasshouse, the plants were sprayed with an aqueous spray solution derived from the formulation of the technical active ingredient in 0.6 ml acetone and 45 ml formulation solution containing 10.6% Emulsogen EL (Registry number 61791-12-6), 42.2% N-methylpyrrolidone, 42.2% dipropylene glycol monomethyl ether (Registry number 34590-94-8) and 0.2% X-77 (Registry number 11097-66-8). The test plants were then grown in a greenhouse under optimum conditions until, 15 days later for post-emergence and 20 days for pre-emergence, the test was evaluated (100=total damage to plant; 0=no damage to plant). Test Plants: Alopecurus myosuroides (ALOMY), Avena fatua (AVEFA), Lolium perenne (LOLPE), Setaria faberi (SETFA), Digitaria sanguinalis (DIGSA), Echinochloa crus-galli (ECHCG)

[2] = system: Avena fatua (AVEFA); experiment: as above; conditions: 480 h, rate 250 g/ha, evaluated 20 days later, 100=total damage to plant, 0=no damage to plant
Experimental: as §1

[3] = system: Digitaria sanguinalis (DIGSA); experiment: as above; conditions: 480 h, rate 250 g/ha, evaluated 20 days later, 100=total damage to plant, 0=no damage to plant
Experimental: as §1

[4] = system: Echinochloa crus-galli (ECHCG); experiment: as above; conditions: 480 h, rate 250 g/ha, evaluated 20 days later, 100=total damage to plant, 0=no damage to plant
Experimental: as §1

[5] = system: Lolium perenne (LOLPE); experiment: as above; conditions: 480 h, rate 250 g/ha, evaluated 20 days later, 100=total damage to plant, 0=no damage to plant
Experimental: as §1

[6] = system: Setaria faberi (SETFA); experiment: as above; conditions: 480 h, rate 250 g/ha, evaluated 20 days later, 100=total damage to plant, 0=no damage to plant
Experimental: as §1

[7] = system: Alopecurus myosuroides (ALOMY); experiment: Post-emergence herbicidal activity, glasshouse pot test; conditions: 360 h, rate 125 g/ha, evaluated 15 days later, 100=total damage to plant, 0=no damage to plant
Experimental: as §1

[8] = system: Avena fatua (AVEFA); experiment: as above; conditions: 360 h, rate 125 g/ha, evaluated 15 days later, 100=total damage to plant, 0=no damage to plant
Experimental: as §1

[9] = system: Digitaria sanguinalis (DIGSA); experiment: as above; conditions: 360 h, rate 125 g/ha, evaluated 15 days later, 100=total damage to plant, 0=no damage to plant
Experimental: as §1

[10] = system: Echinochloa crus-galli (ECHCG); experiment: as above; conditions: 360 h, rate 125 g/ha, evaluated 15 days later, 100=total damage to plant, 0=no damage to plant
Experimental: as §1

[11] = system: Lolium perenne (LOLPE); experiment: as above; conditions: 360 h, rate 125 g/ha, evaluated 15 days later, 100=total damage to plant, 0=no damage to plant
Experimental: as §1

[12] = system: Setaria faberi (SETFA); experiment: as above; conditions: 360 h, rate 125 g/ha, evaluated 15 days later, 100=total damage to plant, 0=no damage to plant
Experimental: as §1

| Structure (SMILES) | pest or weed control at 250 g/ha [1] [%] | pest or weed control at 250 g/ha [2] [%] | pest or weed control at 250 g/ha [3] [%] | pest or weed control at 250 g/ha [4] [%] | pest or weed control at 250 g/ha [5] [%] | pest or weed control at 250 g/ha [6] [%] | pest or weed control at 125 g/ha [7] [%] | pest or weed control at 125 g/ha [8] [%] | pest or weed control at 125 g/ha [9] [%] | pest or weed control at 125 g/ha [10] [%] | pest or weed control at 125 g/ha [11] [%] | pest or weed control at 125 g/ha [12] [%] |
| --- | --- | --- | --- | --- | --- | --- | --- | --- | --- | --- | --- | --- |
| Cc1cc(-c2ccccc2)cc(C)c1C1C(=O)[C@@H]2[C@H](C1=O)[C@@]1(C)CC[C@]2(C)O1 (stereo partly drawn) [Compound T7] | 90 | 40 | 100 | 100 | 40 | 100 | 70 | 60 | 80 | 100 | 60 | 90 |
| CC(=O)OC1=C(c2c(C)cc(-c3ccccc3)cc2C)C(=O)[C@@H]2[C@H]1[C@@]1(C)CC[C@]2(C)O1 [Compound P6] | 80 | 30 | 100 | 100 | 70 | 100 | 70 | 50 | 90 | 100 | 60 | 100 |
| CC(=O)OC1=C(c2c(C)cc(-c3ccccc3)cc2C)C(=O)[C@@H]2[C@H]1[C@H]1CC[C@@H]2O1 [Compound P3] | 100 | 60 | 100 | 80 | 100 | 100 | 100 | 80 | 80 | 100 | 100 | 90 |
| CCc1ccc(-c2ccc(Cl)cc2C)cc1C1=C(O)[C@H]2[C@@H](C1=O)[C@@H]1CC[C@H]2O1 [Compound T13] | 40 | 20 | 80 | 70 | 30 | 80 | 50 | 30 | 10 | 100 | 40 | 80 |
| Cc1cc(-c2ccccc2)cc(C)c1C1=C(OC(=O)C(C)(C)C)[C@H]2[C@@H](C1=O)[C@]1(C)CC[C@@]2(C)O1 [Compound P5] | 100 | 0 | 100 | 70 | 70 | 100 | 70 | 20 | 100 | 100 | 40 | 90 |
| CCc1ccc(-c2ccc(Cl)c(Cl)c2)cc1C1=C(O)[C@H]2[C@@H](C1=O)[C@]1(C)CC[C@@]2(C)O1 [Compound T29] | 10 | 0 | 40 | 0 | 30 | 50 | 90 | 90 | 100 | 100 | 50 | 100 |
| CCc1ccc(-c2ccc(Cl)s2)cc1C1=C(O)[C@H]2[C@@H](C1=O)[C@@H]1CC[C@H]2O1 [Compound T18] | 50 | 20 | 100 | 90 | 80 | 90 | 100 | 100 | 100 | 100 | 70 | 100 |
| CCc1ccc(-c2ccc(Cl)cc2)cc1C1=C(O)[C@H]2[C@@H](C1=O)[C@@H]1C=C[C@H]2O1 (racemic) [Compound T4, (1RS,2SR,6RS,7SR)-4-(4′-chloro-4-ethylbiphen-3-yl)-10-oxatricyclo[5.2.1.0^2,6]dec-8-ene-3,5-dione] | 60 | 50 | 100 | 100 | 60 | 100 | 80 | 60 | 100 | 100 | 80 | 100 |
| Cc1ccc(-c2cc(C)c(C3C(=O)[C@@H]4[C@H](C3=O)[C@H]3CC[C@@H]4O3)c(C)c2)cc1 (stereo partly drawn) [Compound T27] | 0 | 30 | 40 | 60 | 30 | 40 | 70 | 40 | 60 | 70 | 70 | 70 |
| Cc1cc(-c2ccccc2)cc(C)c1C1=C(OC(=O)c2c(C)noc2C)[C@H]2[C@@H](C1=O)[C@@H]1CC[C@H]2O1 [Compound P4] | 100 | 50 | 100 | 100 | 90 | 100 | 100 | 90 | 80 | 100 | 90 | 80 |
